Data as given in ChEMBL document CHEMBL6127052, “Discovery of membrane-targeting amphiphilic honokiol derivatives containing an oxazolethione moiety to combat methicillin-resistant Staphylococcus aureus (MRSA) infections” (Eur J Med Chem, 2024).
In brackets after ≈: the same amount, converted by molar mass.

Assays:
Staphylococcus aureus [1] = assay: Antibacterial activity against methicillin-resistant Staphylococcus aureus clinical isolate M22 by CLSI based micro-broth dilution method; assay type: functional
Staphylococcus aureus [2] = assay: Antibacterial activity against methicillin-resistant Staphylococcus aureus clinical isolate M21 by CLSI based micro-broth dilution method; assay type: functional
Staphylococcus aureus [3] = assay: Antibacterial activity against methicillin-resistant Staphylococcus aureus clinical isolate M20 by CLSI based micro-broth dilution method; assay type: functional
Staphylococcus aureus [4] = assay: Antibacterial activity against methicillin-resistant Staphylococcus aureus clinical isolate M11 by CLSI based micro-broth dilution method; assay type: functional
Staphylococcus aureus [5] = assay: Antibacterial activity against methicillin-resistant Staphylococcus aureus clinical isolate M16 by CLSI based micro-broth dilution method; assay type: functional
Staphylococcus aureus [6] = assay: Antibacterial activity against methicillin-resistant Staphylococcus aureus clinical isolate M12 by CLSI based micro-broth dilution method; assay type: functional
Staphylococcus aureus [7] = assay: Antibacterial activity against methicillin-resistant Staphylococcus aureus clinical isolate M23 by CLSI based micro-broth dilution method; assay type: functional
Staphylococcus aureus [8] = assay: Antibacterial activity against methicillin-resistant Staphylococcus aureus clinical isolate M17 by CLSI based micro-broth dilution method; assay type: functional
Staphylococcus aureus [9] = assay: Antibacterial activity against methicillin-resistant Staphylococcus aureus clinical isolate M13 by CLSI based micro-broth dilution method; assay type: functional
Staphylococcus aureus [10] = assay: Antibacterial activity against methicillin-resistant Staphylococcus aureus N315 by CLSI based micro-broth dilution method; assay type: functional
[11] = Selectivity index, ratio of HC50 for hemolytic activity in sheep erythrocytes to MIC for antibacterial activity against Staphylococcus aureus ATCC 29213; assay type: toxicity, cell-based, RBC
Escherichia coli = assay: Antibacterial activity against Escherichia coli ATCC 25922 by CLSI based micro-broth dilution method; assay type: functional
Staphylococcus aureus [12] = assay: Antibacterial activity against methicillin-resistant Staphylococcus aureus clinical isolate M14 by CLSI based micro-broth dilution method; assay type: functional
Staphylococcus aureus [13] = assay: Antibacterial activity against Staphylococcus aureus ATCC 29213 by CLSI based micro-broth dilution method; assay type: functional
[14] = Hemolytic activity in sheep erythrocytes incubated for 1 hr by absorbance based assay; assay type: toxicity, cell-based, Ovis aries, Erythrocyte

Compound	MIC (Staphylococcus aureus [1]) [µg/mL]	MIC (Staphylococcus aureus [2]) [µg/mL]	MIC (Staphylococcus aureus [3]) [µg/mL]	MIC (Staphylococcus aureus [4]) [µg/mL]	MIC (Staphylococcus aureus [5]) [µg/mL]	MIC (Staphylococcus aureus [6]) [µg/mL]	MIC (Staphylococcus aureus [7]) [µg/mL]	MIC (Staphylococcus aureus [8]) [µg/mL]	MIC (Staphylococcus aureus [9]) [µg/mL]	MIC (Staphylococcus aureus [10]) [µg/mL]	selectivity ratio [11]	MIC (Escherichia coli) [µg/mL]	MIC (Staphylococcus aureus [12]) [µg/mL]	MIC (Staphylococcus aureus [13]) [µg/mL]	HC50 at 1 h [14] [µg/mL]
C=CCc1cc(-c2ccc(OCCC[N+](C)(C)CC(=O)NCCCC)c(CC=C)c2)c2oc(=S)n(Cc3ccc(Cl)cc3Cl)c2c1.[Br-]	> 128	> 128	> 128	> 128	> 128	> 128	> 128	> 128	> 128	128	1.3	> 128	> 128	> 128	> 160
C=CCc1cc(-c2ccc(OCCC[N+](C)(C)CC(=O)NCCCC)c(CC=C)c2)c2oc(=S)n(Cc3cc(F)c(F)c(F)c3)c2c1.[Br-]	4	2	2	2	2	2	2	4	4	16	–	> 128	2	2	52.8
C=CCc1cc(-c2ccc(OCCC[N+](C)(C)CC(=O)NCCCC)c(CC=C)c2)c2oc(=S)n(Cc3ccc(F)c(F)c3)c2c1.[Br-]	4	4	4	4	4	4	4	4	2	16	10.4	> 128	2	4	68.4
C=CCc1cc(-c2ccc(OCCC[N+](C)(C)CC(=O)NCCCC)c(CC=C)c2)c2oc(=S)n(Cc3cccc(Cl)c3Cl)c2c1.[Br-]	64	8	8	16	64	8	64	64	64	64	0.7	> 128	32	32	22
C=CCc1cc(-c2ccc(OCCC[N+](C)(C)CC(=O)NCCCC)c(CC=C)c2)c2oc(=S)n(Cc3c(Cl)cccc3Cl)c2c1.[Br-]	32	8	8	8	8	4	8	16	16	32	25	> 128	16	16	400
C=CCc1cc(-c2ccc(OCCC[N+](C)(C)CC(=O)NCCCC)c(CC=C)c2)c2oc(=S)n(Cc3cc(Cl)cc(Cl)c3)c2c1.[Br-]	32	16	16	32	32	8	32	32	32	64	0.5	> 128	32	64	31.3
C=CCc1cc(-c2ccc(OCCC[N+](C)(C)CC(=O)NCCCC)c(CC=C)c2)c2oc(=S)n(Cc3ccc(Br)cc3)c2c1.[Br-]	32	16	16	16	16	16	16	16	16	32	15.3	> 128	16	32	489
C=CCc1cc(-c2ccc(OCCC[N+](C)(C)CC(=O)NCCCC)c(CC=C)c2)c2oc(=S)n(Cc3cccc(Br)c3)c2c1.[Br-]	32	16	8	8	8	8	16	32	8	16	> 10	> 128	8	16	> 160
C=CCc1cc(-c2ccc(OCCC[N+](C)(C)CC(=O)NCCCC)c(CC=C)c2)c2oc(=S)n(Cc3ccc(Cl)c(Cl)c3)c2c1.[Br-]	64	16	32	32	32	32	32	128	64	32	> 2.5	> 128	32	64	> 160
C[C@@H](O)[C@H]1C(=O)N2C(C(=O)O)=C(S[C@@H]3CN[C@H](C(=O)N(C)C)C3)[C@H](C)[C@H]12 [MEROPENEM]	–	–	–	–	–	–	–	–	–	–	–	0.063 (≈ 0.164 µM)	–	–	–
